Results taken from patent US20100292165A1, “Treatment of an intestinal adenoma and/or adenocarcinoma by inhibition of notch pathway activation” (Hubrecht Laboratorium a corporation of the Netherlands, priority 2004, published 2010).
“Also recorded” adds a separate entry of the source.

Columns and labels:
γ-secretase = assay: IC50 of γ-secretase inhibitors, assay not stated
Excerpt: DAPT, DBZ or BZ are both effective in inducing the formation of a post-mitotic cell from an adenoma and/or adenocarcinoma cell and these compounds thus have a similar effect in a method according to the invention.

adenomas of APC^min mice = assay: Oral DAPT treatment of APC^min mice, histology of intestinal adenomas; assay type: in vivo, mouse; details: DAPT 100 mg/kg orally once daily
Description: The intestinal tract was dissected as a whole and flushed gently with cold PBS to remove any fecal content followed by a flush with Formalin. The small intestine was rolled up into a compact circle and fixed in Formalin at room temperature for 16 hours. The tissues were sectioned (2 to 6 μm). Following dewaxing and hydration, sections were pretreated with peroxidase blocking buffer (120 mM Na2HPO4, 43 mM citric acid, 30 mM NaN3, 0.2% H2O2; pH 5.8) for 15 minutes at room temperature. Antigen retrieval was performed by boiling samples in Na-citrate buffer (10 mM, pH 6.0). After 20 minutes, the boiling pan was allowed to slowly cool down to room temperature. Incubation of antibodies was performed in BSA in PBS overnight at 4° C. and at room temperature for one hour for Lysozyme, Ki67. In all cases, the Envision^+ kit (DAKO) was used as a secondary reagent. The incubation time was 30 minutes. Stainings were developed using DAB. Slides were then counterstained with hematoxylin and mounted. The probes used for in situ hybridization are as described (Schroder et al. 2002). Following dewaxing and hydration, tissues were incubated for five minutes in Alcian Blue (1% in 0.5% acetic acid). Subsequently washed in water, one minute incubated in Neutral Red. Quickly dehydrated, washed in Xylene and mounted with Pertex. The eight-week-old APC^min mice were treated with two different, orally deliverable γ-secretase inhibitors (DAPT: 100 mg/kg in corn oil) for 2.5, 6.5 or 15 days, after which their intestines were isolated and examined histologically. We then asked whether Notch pathway activity was essential for the maintenance of the undifferentiated, proliferative phenotype of adenoma cells. We elected to inhibit the Notch pathway pharmacologically through the use of the γ-secretase inhibitor DAPT. We then initiated treatment of fifteen-week-old APC^min mice that at this age carry 30 to 60 macroscopically detectable adenomas or polyps in the small intestine and one to three adenomas in the colon. The mice were treated with DAPT for up to 15 days, after which their intestines were examined histologically. Based on a pilot experiment and published treatment regimens, the APC^min mice were orally dosed once daily with DAPT at 100 mg/kg in maize oil.

- IC50 (γ-secretase): 10 nM
SMILES: CC(NC(=O)Cc1cc(F)cc(F)c1)C(=O)NC(C(=O)OC(C)(C)C)c1ccccc1 [DAPT, N—[N-(3,5-difluorophenylacetyl)-L-alanyl]-S-phenylglycine t-butyl ester]
- effects in adenomas (adenomas of APC^min mice; day 2.5 or day 6.5 of treatment): No consistent effects
- Alcian Blue-positive goblet cells in adenomas (adenomas of APC^min mice; day 15): increase in goblet cells; also recorded: Large foci of Alcian Blue-positive goblet cells had appeared
- proliferation in adjacent, normal crypts (adenomas of APC^min mice; day 15): unaffected
- numbers of proliferating, Ki67-positive cells in adenomas (adenomas of APC^min mice; day 15, colon and small intestinal adenomas): strongly diminished; also recorded: dramatically decreased; also recorded: halted
